The values that follow come from US9560851B2, “Pesticidal mixtures including spiroheterocyclic pyrrolidine diones” (Syngenta Participations AG, priority 2012, dated 2017).

For assay [1], the system named is Myzus persicae (Green Peach Aphid). The assay can be described thus: Myzus persicae feeding/residual contact activity, preventive (sunflower leaf discs). In kind it is in vivo. To be noted: Acetamiprid alone, 6 DAT. How it is done:
Myzus persicae (Green Peach Aphid):
feeding/residual contact activity, preventive
Sunflower leaf discs were placed on agar in a 24-well microtiter plate and sprayed with the DMSO test solutions of Mixtures (as provided by Table 45). After drying, the leaf discs were infested with an aphid population of mixed ages. After an incubation period of 6 DAT (days after treatment), samples were checked for mortality.

In assay [2] the test system is Tetranychus urticae (Two-Spotted Spider Mite). The experiment in a line: Tetranychus urticae feeding/contact activity, preventive (bean leaf discs). In kind it is in vivo. The conditions noted are these: mobile stages. The source says:
Tetranychus urticae (Two-Spotted Spider Mite): feeding/contact activity, preventive
Bean leaf discs on agar in 24-well microtiter plates were sprayed with the DMSO test solutions of certain Mixtures (as provided by Table 45). After drying, the leaf discs were infested with mite populations of mixed ages. 8 days later, discs were checked for mortality against mobile stages.

Each structure is given as a SMILES string.

Turning to `C/C(=N\C#N)N(C)Cc1ccc(Cl)nc1` [Acetamiprid], the “AVERAGE DEAD IN % AFTER 6 DAYS” value in assay [1] (0.1 PPM AI) is given as 0%; in assay [1] (0.2 PPM AI), 0%; in assay [1] (0.4 PPM AI), 0%; in assay [1] (0.8 PPM AI) it was 0%; in assay [1] (1.6 PPM AI), 27%. The “AVERAGE DEAD IN % AFTER 8 DAYS” value in assay [2] (Table 47, Acetamiprid alone, 50 PPM AI) is given as 0%; in assay [2] (Table 47, Acetamiprid alone, 100 PPM AI), 0%; in assay [2] (Table 47, Acetamiprid alone, 200 PPM AI) it was 0%; in assay [2] (Table 47, Acetamiprid alone, 400 PPM AI), 0%; in assay [2] (Table 47, Acetamiprid alone, 800 PPM AI), 0%; in assay [2] (Table 48, Acetamiprid alone, 50 PPM AI), 0%. Besides, the “AVERAGE DEAD IN % AFTER 8 DAYS” value in assay [2] (Table 48, Acetamiprid alone, 100 PPM AI) is on record as 0%; in assay [2] (Table 48, Acetamiprid alone, 200 PPM AI), 0%; in assay [2] (Table 48, Acetamiprid alone, 400 PPM AI), 0%; in assay [2] (Table 48, Acetamiprid alone, 800 PPM AI) it was 0%.
